Substitutions are numbered along the chain they refer to. Structures can show the parent of a compound that is named as a salt.
What was measured:
[1] = biological target: T1, monkey chymase (Macaca fascicularis, UniProt P56435); experiment: Monkey chymase inhibitory activity (in vitro, angiotensin I substrate); format: biochemical; conditions: for IC50: chymase purified from monkey cheek pouch and stomach, substrate angiotensin I, 37° C., read-out: Monkey Chymase Inhibition (IC50:nM)
T1 construct: chymase was extracted from homogenized monkey cheek pouch and stomach; from tissue; host or cells: monkey cheek pouch and stomach
T1 sequence (P56435 22-247): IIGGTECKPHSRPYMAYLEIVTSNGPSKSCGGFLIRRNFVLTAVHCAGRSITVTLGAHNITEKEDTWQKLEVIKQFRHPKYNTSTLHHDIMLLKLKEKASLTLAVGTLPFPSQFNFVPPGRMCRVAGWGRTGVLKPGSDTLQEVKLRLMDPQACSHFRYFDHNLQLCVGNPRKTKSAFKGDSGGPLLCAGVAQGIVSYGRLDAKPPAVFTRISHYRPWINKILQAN
Experimental: (§1) The inhibitory activities of the compounds on monkey chymase and human chymase were tested in vitro. The test compounds are as shown by Compound Nos. in Tables 13 and 14.
Preparation of Monkey Chymase
Chymase was purified from monkey cheek pouch and stomach in the following manner.
Briefly, chymase was extracted from homogenized monkey cheek pouch and stomach with 0.01 mol/1000 ml sodium phosphate buffer, pH 7.4, containing 2 mol/1000 ml KCl and 0.1% Nonidet P-40 (Amresco Inc.). The solution containing chymase was applied to a heparin actigel column, and the chymase-rich fractions were collected.
(§2) Measurement of Chymase Inhibitory Activity (In Vitro Assay)
(§3) Briefly, the purified monkey or human chymase was diluted to an appropriate concentration with 0.01 mol/1000 ml sodium phosphate buffer, pH 7.4, containing 2 mol/1000 ml KCl and 0.1% Nonidet P-40 and used as enzyme solution. Angiotensin I (Peptide Institute Inc.) was diluted with water to 5 mg/ml and used as substrate solution. Test compounds were serially diluted with 10% DMSO. […] After pre-incubation of the mixture at 37° C., 20 μl of the substrate solution was added to the enzyme-test compound mixture and the new mixture was incubated at 37° C. Fifty μl of 30% trichloroacetic acid solution was finally added to stop the enzymatic reaction.
(§4) The amount of L-His-L-Leu was measured as angiotensin II produced by the enzymatic reaction. Briefly, 10 μl of the reaction mixture and 10 μl of 1% orthophthalaldehyde solution dissolved in methanol were mixed with 100 μl of 2 mol/1000 ml NaOH and kept at room temperature. The reaction was then stopped by adding 10 μl of 6 mol/1000 ml HCl.

[2] = biological target: T2, human chymase (Homo sapiens, UniProt P23946); experiment: Human chymase inhibitory activity (in vitro, angiotensin I substrate); format: biochemical; conditions: for IC50: recombinant human chymase (COS7 cells), substrate angiotensin I, 37° C., read-out: Human Chymase Inhibition (IC50:nM)
T2 construct: made in house; host or cells: COS7 cells (transient transfection)
T2 sequence (P23946 22-247): T1 sequence (P56435 22-247) with S29F, V44A, K63E, Y159D, L201S, K221Q
Experimental: as §1
Preparation of Human Chymase
Human chymase was produced in mammalian cells using a recombinant DNA technique.
Construction of a human prochymase expression plasmid was performed in the following manner. Briefly, single stranded cDNA was synthesized from human heart mRNA (Clontech Laboratories, Inc.). Polymerase chain reaction amplification was carried out using the cDNA as a template and appropriate pairs of primers. The primer sequences were determined based on the human preprochymase. The amplified product was cloned into the plasmid pUC18, and then recloned into the plasmid pBluescript II KS(+) (Stratagene). Finally, the DNA fragment carrying the entire protein-coding sequences of the human preprochymase was inserted to a transient expression vector by the usual method to yield the human prochymase expression plasmid.
Transfection of COS7 cells with the human prochymase expression plasmid was carried out using the FuGene™ 6 transfection reagent (Boehringer Mannheim). About 7 hours after exposure to DNA, the culture medium was changed to a serum-free one. The culture supernatant was collected after 2 days culture.
Human prochymase was purified from the culture supernatant using a heparin actigel column as described above in the preparation of monkey chymase.
In order to produce active chymase, the human prochymase was incubated with dipeptidylpeptidase I (Sigma). The resultant active human chymase was purified using a heparin actigel column as described above. The active human chymase was eluted with 0.01 mol/1000 ml sodium phosphate buffer pH 7.4 containing 2 mol/1000 ml NaCl.
as §2
as §3, with “The chymase inhibitory activities of compounds I-A of this invention were measured according to the following method. Briefly,” for “Briefly,”
as §4, with “HCl. Finally, the fluorescence induced by the reaction was measured using in a photometer with an excitation wavelength of 355 nm and an emission wavelength of 460 nm. Chymase inhibitory activities of test compounds were expressed as 50% inhibitory concentration (IC50).” for “HCl.”

[3] = in vivo; conditions: male, ddy, mouse, po

| IC50 [1] [nM] | IC50 [2] [nM] | concentration at 1 h [3] [ng/mL] | inhibitory activity on monkey chymase (in words) ([1]; summary of Table 13) | inhibitory activity on human chymase (in words) ([2]; summary of Table 14) | SMILES |
| --- | --- | --- | --- | --- | --- |
| 54 | 83 | 2700 | – | – | Cc1noc(C)c1C(=O)N[C@H](C(=O)N1CCC[C@H]1C(=O)N[C@@H](Cc1ccc2ccccc2c1)C(=O)C(F)(F)F)C(C)C [I-A-2, N-[(1S)-2-((2S)-2-{N-[(1S)-3,3,3-trifluoro-1-(2-naphthylmethyl)-2-oxopropyl]carbamoyl}pyrrolidinyl)-1-(methylethyl)-2-oxoethyl]-(3,5-dimethylisoxazol-4-yl)carboxamide] |
| 9.3 | 50 | 320 | – | – | CC[C@H](NC(=O)c1c(C)noc1C)C(=O)N1CCC[C@H]1C(=O)N[C@@H](Cc1csc2ccccc12)C(=O)C(F)(F)F [I-A-3, N-[(1S)-2-((2S)-2-{N-[(1S)-1-(benzo[b]thiophen-3-ylmethyl)-3,3,3-trifluoro-2-oxopropyl]carbamoyl}pyrrolidinyl)-1-ethyl-2-oxoethyl](3,5-dimethylisoxazol-4-yl)carboxamide] |
| 12 | 57 | 940 | – | – | CC[C@@H](C)[C@H](NC(=O)c1c(C)noc1C)C(=O)N1CCC[C@H]1C(=O)N[C@@H](Cc1csc2ccccc12)C(=O)C(F)(F)F [I-A-4, N-[1-((1R)-1-methylpropyl)(1S)-2-((2S)-2-{N-[(1S)-1-(benzo[b]thiophen-3-ylmethyl)-3,3,3-trifluoro-2-oxopropyl]carbamoyl}pyrrolidinyl)-2-oxoethyl](3,5-dimethylisoxazol-4-yl)carboxamide] |
| 16 | 83 | 630 | – | – | Cc1noc(C)c1C(=O)N[C@@H](C)C(=O)N1CCC[C@H]1C(=O)N[C@@H](Cc1csc2ccccc12)C(=O)C(F)(F)F [I-A-5, N-[(1S)-2-((2S)-2-{N-[(1S)-1-(benzo[b]thiophen-3-ylmethyl)-3,3,3-trifluoro-2-oxopropyl]carbamoyl}pyrrolidinyl)-1-methyl-2-oxoethyl](3,5-dimethylisoxazol-4-yl)carboxamide] |
| 31 | 57 | – | – | – | CC(C)[C@H](NC(=O)c1ccc2c(c1)no[n+]2[O-])C(=O)N1CCC[C@H]1C(=O)NC(Cc1csc2ccccc12)C(=O)C(F)(F)F (stereo partly shown) [I-A-52] |
| 31 | 69 | – | – | – | CC(C)[C@H](NC(=O)c1ccc2c(c1)no[n+]2[O-])C(=O)N1CCC[C@H]1C(=O)NC(Cc1ccc2ccccc2c1)C(=O)C(F)(F)F (stereo partly shown) [I-A-53] |
| 42 | 90 | – | – | – | CC(C)[C@H](NC(=O)c1ccc2c(c1)no[n+]2[O-])C(=O)N1CCC[C@H]1C(=O)NC(Cc1ccccc1)C(=O)C(F)(F)F (stereo partly shown) [I-A-54] |
| 150 | 92 | – | – | – | CC(C)[C@H](NC(=O)c1ccoc1)C(=O)N1CCC[C@H]1C(=O)NC(Cc1ccc2ccccc2c1)C(=O)C(F)(F)F (stereo partly shown) [I-A-63] |
| 73 | 96 | – | – | – | CC(C)[C@H](NC(=O)c1ccoc1)C(=O)N1CCC[C@H]1C(=O)NC(Cc1csc2ccccc12)C(=O)C(F)(F)F (stereo partly shown) [I-A-64] |
| 280 | – | – | – | – | CC(C)[C@H](NC(=O)Cn1ccc(=O)n(CC(=O)OC(C)(C)C)c1=O)C(=O)N1CCC[C@H]1C(=O)NC(Cc1ccc(Cl)cc1)C(=O)C(F)(F)F (stereo partly shown) [I-A-90] |
| 150 | – | – | – | – | O=C(O)Cn1c(=O)ccn(CC(=O)N[C@@H](CC2CCCCC2)C(=O)N2CCC[C@H]2C(=O)NC(Cc2ccccc2)C(=O)C(F)(F)F)c1=O (stereo partly shown) [I-A-91] |
| 860 | – | – | – | – | CC(C)(C)OC(=O)Cn1c(=O)ccn(CC(=O)N[C@@H](CC2CCCCC2)C(=O)N2CCC[C@H]2C(=O)NC(Cc2ccccc2)C(=O)C(F)(F)F)c1=O (stereo partly shown) [I-A-92] |
| 200 | – | – | – | – | Cc1cn(CC(=O)N[C@H](C(=O)N2CCC[C@H]2C(=O)NC(Cc2cc3ccccc3s2)C(=O)C(F)(F)F)C(C)C)c(=O)n(Cc2ccccc2)c1=O (stereo partly shown) [I-A-93] |
| 15 | – | – | – | – | Cc1nsc(C)c1C(=O)N[C@H](C(=O)N1CCC[C@H]1C(=O)NC(Cc1cc2ccccc2s1)C(=O)C(F)(F)F)C(C)C (stereo partly shown) [I-A-94] |
| 47 | 95 | – | – | – | CC(C)[C@H](NC(=O)c1ccc2nonc2c1)C(=O)N1CCC[C@H]1C(=O)NC(Cc1cc2ccccc2s1)C(=O)C(F)(F)F (stereo partly shown) [I-A-95] |
| 50 | 77 | – | – | – | Cc1nnsc1C(=O)N[C@H](C(=O)N1CCC[C@H]1C(=O)NC(Cc1ccccc1)C(=O)C(F)(F)F)C(C)C (stereo partly shown) [I-A-96] |
| 59 | 75 | – | – | – | Cc1nnsc1C(=O)N[C@H](C(=O)N1CCC[C@H]1C(=O)NC(Cc1cc2ccccc2s1)C(=O)C(F)(F)F)C(C)C (stereo partly shown) [I-A-97] |
| 63 | – | – | – | – | Cc1noc(C)c1C(=O)N[C@H](C(=O)N1CCC[C@H]1C(=O)NC(Cc1cc2ccccc2s1)C(=O)C(F)(F)F)C(C)C (stereo partly shown) [I-A-98] |
| 83 | – | – | – | – | Cc1snnc1C(=O)N[C@H](C(=O)N1CCC[C@H]1C(=O)NC(Cc1cc2ccccc2s1)C(=O)C(F)(F)F)C(C)C (stereo partly shown) [I-A-99] |
| 260 | – | – | – | – | Cc1nsc(C(=O)N[C@H](C(=O)N2CCC[C@H]2C(=O)NC(Cc2cc3ccccc3s2)C(=O)C(F)(F)F)C(C)C)n1 (stereo partly shown) [I-A-100] |
| 1600 | 1200 | – | very low chymase inhibitory activity | very low chymase inhibitory activity | CNC1CCN(C(=O)N[C@H](C(=O)N2CCC[C@H]2C(=O)N[C@@H](Cc2ccccc2)C(=O)C(F)(F)F)C(C)C)CC1 [Reference compound (A), [(2S)-1-((2S)-3-methyl-2-{[4-(methylamino)piperidyl]carbonylamino}butanoyl)pyrrolidin-2-yl]-N-[(1S)-3,3,3-trifluoro-2-oxo-1-benzylpropyl]carboxamide hydrochloride, reference compound] |
